Laboratory results from PubChem BioAssay (NCI).
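GI50 is the concentration that inhibits growth by half. The concentration for full growth arrest is given as TGI.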

Experiments:
Test in all cases: NCI anticancer screen, dose series, 384-well format
[1] = test system: RXF 393 renal
[2] = test system: OVCAR-8 ovarian
[3] = test system: CAKI-1 renal
[4] = test system: MALME-3M melanoma
[5] = test system: A549 NSCLC
[6] = test system: TK-10 renal
[7] = test system: SK-MEL-28 melanoma
[8] = test system: EKVX NSCLC
[9] = test system: HCC-2998 colon
[10] = test system: MDA-MB-435 melanoma
[11] = test system: NCI-H460 NSCLC
[12] = test system: CCRF-CEM leukemia
[13] = test system: NCI-H226 lung
[14] = test system: LOX IMVI melanoma
[15] = test system: SF-268 CNS
[16] = test system: COLO 205 colon
[17] = test system: SF-295 CNS
[18] = test system: NCI-H522 lung
[19] = test system: NCI/ADR-RES ovarian
[20] = test system: MOLT-4 leukemia
[21] = test system: HOP-92 NSCLC
[22] = test system: SK-MEL-2 melanoma
[23] = test system: SF-539 CNS
[24] = test system: SN12C renal
[25] = test system: HCT-15 colon
[26] = test system: HOP-62 NSCLC
[27] = test system: SNB-75 CNS
[28] = test system: SK-MEL-5 melanoma
[29] = test system: HCT-116 colon
[30] = test system: HL-60(TB) leukemia
[31] = test system: K-562 leukemia
[32] = test system: MCF7 breast
[33] = test system: A498 renal
[34] = test system: ACHN renal
[35] = test system: RPMI-8226 leukemia
[36] = test system: NCI-H23 lung
[37] = test system: HT29 colon
[38] = test system: M14 melanoma
[39] = test system: PC-3 prostate
[40] = test system: U251 glioblastoma
[41] = test system: 786-0 renal
[42] = test system: SNB-19 CNS
[43] = test system: OVCAR-4 ovarian
[44] = test system: HS 578T breast
[45] = test system: SW-620 colon
[46] = test system: DU-145 prostate
[47] = test system: OVCAR-3 ovarian
[48] = test system: UACC-62 melanoma
[49] = test system: KM12 colon
[50] = test system: IGROV1 ovarian
[51] = test system: BT-549 breast
[52] = test system: UACC-257 melanoma
[53] = test system: SK-OV-3 ovarian
[54] = test system: MDA-MB-468 breast
[55] = test system: NCI-H322M lung

## O=C(Nc1cccc(Br)c1)Oc1ccc(Cl)c2cccnc12
[1]
  GI50: 2.63 µM
  TGI: 9.07 µM
[2]
  GI50: 2.29 µM
  TGI: 4.86 µM
[3]
  GI50: 2.61 µM
  TGI: 6.82 µM
[4]
  GI50: 2.79 µM
  TGI: 7.77 µM
[5]
  GI50: 11 µM
  TGI: 23.8 µM
[6]
  GI50: 18.5 µM
  TGI: 47.4 µM
[7]
  GI50: 3.5 µM
  TGI: 9.22 µM
[8]
  GI50: 2.6 µM
  TGI: 5.8 µM
[9]
  GI50: 15.4 µM
  TGI: 28.9 µM
[10]
  GI50: 5.71 µM
  TGI: 19.1 µM
[11]
  GI50: 3.22 µM
  TGI: 9.1 µM
[12]
  GI50: 1.6 µM
  TGI: 3.01 µM
[13]
  GI50: 1.62 µM
  TGI: 3.12 µM
[14]
  GI50: 3.36 µM
  TGI: 12.3 µM
[15]
  GI50: 3.33 µM
  TGI: 12.1 µM
[16]
  GI50: 4.37 µM
  TGI: 12.1 µM
[17]
  GI50: 4.71 µM
  TGI: 16.3 µM
[18]
  GI50: 2.01 µM
  TGI: 4.04 µM
[19]
  GI50: 2.57 µM
  TGI: 4.9 µM
[20]
  GI50: 1.73 µM
  TGI: 3.16 µM
[21]
  GI50: 3.59 µM
  TGI: 9.38 µM
[22]
  GI50: 2.39 µM
  TGI: 4.87 µM
[23]
  GI50: 3.26 µM
  TGI: 10.4 µM
[24]
  GI50: 3.56 µM
  TGI: 14.9 µM
[25]
  GI50: 3.74 µM
  TGI: 10.6 µM
[26]
  GI50: 3.43 µM
  TGI: 6.55 µM
[27]
  GI50: 2.96 µM
  TGI: 8.36 µM
[28]
  GI50: 2.01 µM
  TGI: 4.53 µM
[29]
  GI50: 2.02 µM
  TGI: 3.77 µM
[30]
  GI50: 0.42 µM
  TGI: 1.42 µM
[31]
  GI50: 13.5 µM
  TGI: 27 µM
[32]
  GI50: 2.04 µM
  TGI: 4.28 µM
[33]
  GI50: 4.23 µM
  TGI: 13.1 µM
[34]
  GI50: 3.98 µM
  TGI: 15 µM
[35]
  GI50: 1.65 µM
  TGI: 3.08 µM
[36]
  GI50: 1.98 µM
  TGI: 3.91 µM
[37]
  GI50: 14.4 µM
  TGI: 27.6 µM
[38]
  GI50: 2.68 µM
  TGI: 6.58 µM
[39]
  GI50: 2.37 µM
  TGI: 5.64 µM
[40]
  GI50: 3.9 µM
  TGI: 11.2 µM
[41]
  GI50: 14.3 µM
  TGI: 27.5 µM
[42]
  GI50: 4.2 µM
  TGI: 15.4 µM
[43]
  GI50: 4.88 µM
  TGI: 15.9 µM
[44]
  GI50: 5.86 µM
  TGI: 18.9 µM
[45]
  GI50: 4.45 µM
  TGI: 13.8 µM
[46]
  GI50: 4.76 µM
  TGI: 19.7 µM
[47]
  GI50: 1.91 µM
  TGI: 3.64 µM
[48]
  GI50: 3.73 µM
  TGI: 10.8 µM
[49]
  GI50: 7.59 µM
  TGI: 19.7 µM
[50]
  GI50: 1.49 µM
  TGI: 3.35 µM
[51]
  GI50: 3.75 µM
  TGI: 15.4 µM
[52]
  GI50: 2.6 µM
  TGI: 4.37 µM
[53]
  GI50: 15.4 µM
  TGI: 28.9 µM
[54]
  GI50: 2.54 µM
  TGI: 4.16 µM
[55]
  GI50: 15.3 µM
  TGI: 31.4 µM
